From patent US20230303540A1 (Merck Sharp & Dohme LLC, priority 2020, published 2023)

Biological target: GST-tagged truncated human mutant G2019S LRRK2 (Homo sapiens, UniProt Q5S007, G2019S)
Assay: LRRK2 G2019S Km ATP LanthaScreen assay
Assay type: biochemical
Details: 134 μM ATP (Km ATP), LRRKtide substrate, mean IC50 values; read-out: LRRK2 pIC50 (converted)
Outline: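 Compound preincubated 15 min at room temperature with enzyme in pH 8.5 Tris buffer (10 mM MgCl2). Then a 90 min reaction at ambient temperature with 134 μM (Km) ATP and fluorescein-LRRKtide. EDTA stop, Tb anti-phospho antibody TR-FRET; […]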

Row | Compound | IC50 [nM]
1 | Cc1c(Nc2ncc3cc(Cl)c(N4CCC(C)(O)CC4C)cc3n2)cnn1C1CC1 (single isomer, unassigned) [Ex-9.1, (2R,4S or 2S,4R, or 2S,4S, or 2R,4R)-1-(6-Chloro-2-((1-cyclopropyl-5-methyl-1H-pyrazol-4-yl)amino)quinazolin-7-yl)-2,4-dimethylpiperidin-4-ol] | 4.68
2 | CC(=O)N1CCN(c2cc3nc(Nc4cnn(C5CC5)c4Cl)ncc3cc2Cl)CC1 [Ex-1.30, 1-(4-{6-chloro-2-[(5-chloro-1-cyclopropyl-1H-pyrazol-4-yl)amino]quinazolin-7-yl}piperazin-1-yl)ethan-1-one] | 7.16
3 | Cc1c(Nc2ncc3cc(Cl)c(N4CCN(C5COCC5O)CC4)cc3n2)cnn1C1CC1(F)F (single isomer, unassigned) [Ex-6.43, (3S,4S) or (3R,4R) 4-[4-(6-chloro-2-{[1-(2,2-(R) or (S)difluorocyclopropyl)-5-methyl-1H-pyrazol-4-yl]amino}quinazolin-7-yl)piperazin-1-yl]oxolan-3-ol] | 7.92
4 | Cn1nc(Cl)cc1Nc1ncc2cc(Cl)c(N3CCN([C@@]4(C)COC[C@H]4O)CC3)cc2n1 (single isomer, unassigned) | 5.97
5 | O=C1COCC12CCN(c1cc3nc(Nc4cnn(C5CC5)c4Cl)ncc3cc1Cl)CC2 [Ex-3.36, 8-{6-chloro-2-[(5-chloro-1-cyclopropyl-1H-pyrazol-4-yl)amino]quinazolin-7-yl}-2-oxa-8-azaspiro[4.5]decan-4-one] | 3.02
6 | Cn1cc(Nc2ncc3ccc(N4C(=O)C5CCC4C5)cc3n2)c(C(F)(F)F)n1 (stereo not shown) [Ex-7.10, 2-(2-{[1-methyl-3-(trifluoromethyl)-1H-pyrazol-4-yl]amino}quinazolin-7-yl)-2-azabicyclo[2.2.1]heptan-3-one] | 5.14
7 | CC1(n2ncc(Nc3ncc4cc(Cl)c(N5CCC(N6CC(F)C6)CC5)cc4n3)c2Cl)CC1 [Ex-4.39, 6-chloro-N-[5-chloro-1-(1-methylcyclopropyl)-1H-pyrazol-4-yl]-7-[4-(3-fluoroazetidin-1-yl)piperidin-1-yl]quinazolin-2-amine] | 0.625
8 | Cc1cc2cnc(Nc3cnn(C4(C)CC4)c3Cl)nc2cc1N1CCN(C2(C)COC2)CC1 [Ex-5.9, N-[5-chloro-1-(1-methylcyclopropyl)-1H-pyrazol-4-yl]-6-methyl-7-[4-(3-methyloxetan-3-yl)piperazin-1-yl]quinazolin-2-amine] | 0.64
9 | CCn1ncc(Nc2ncc3ccc(N4C(=O)OC[C@@H]4C)cc3n2)c1C [Ex-7.1, (S)-3-(2-((1-ethyl-5-methyl-1H-pyrazol-4-yl)amino)quinazolin-7-yl)-4-methyloxazolidin-2-one] | 0.989
10 | OC[C@H]1CCN(c2cc3nc(Nc4cnn(CC(F)F)c4Cl)ncc3cc2Cl)C1 [Ex-1.20, [(3S)-1-(6-chloro-2-{[5-chloro-1-(2,2-difluoroethyl)-1H-pyrazol-4-yl]amino}quinazolin-7-yl)pyrrolidin-3-yl]methanol] | 8.23
11 | Cc1nn(C2CC3(C2)CN(C2COC2)C3)cc1Nc1ncc2ccc(N3C(=O)C4CCC3C4)cc2n1 (single isomer, unassigned) [Ex-8.6, (1R,4S) or (1S,4R)-2-[2-({3-methyl-1-[2-(oxetan-3-yl)-2-azaspiro[3.3]heptan-6-yl]-1H-pyrazol-4-yl}amino)quinazolin-7-yl]-2-azabicyclo[2.2.1]heptan-3-one] | 4.86
12 | Cc1c(Nc2ncc3cc(Cl)c(N4CCN(C5COCC5O)CC4)cc3n2)cnn1C(C)(C)C#N (single isomer, unassigned) [Ex-6.23, (3S,4S) or (3R,4R) 2-[4-({6-chloro-7-[4-(4-hydroxyoxolan-3-yl)piperazin-1-yl]quinazolin-2-yl}amino)-5-methyl-1H-pyrazol-1-yl]-2-methylpropanenitrile] | 13.2
13 | Clc1cc2cnc(Nc3cnn(C4CC4)c3Cl)nc2cc1N1CCN(C2COC2)CC1 [Ex-1.24, 6-chloro-N-(5-chloro-1-cyclopropyl-1H-pyrazol-4-yl)-7-[4-(oxetan-3-yl)piperazin-1-yl]quinazolin-2-amine] | 2.59
